# Source: patent US7807439B2, “Staphylococcus aureus-specific detection media and identifying and/or counting method using same” (Biomerieux S.A., priority 2001, dated 2010)
# Assays:
# S. aureus 0201035 = experiment: Experiment 7: effect of maltose on α-glucosidase activity, weak inocula; type: cell-based, Staphylococcus aureus; set-up: key: 0 corresponds to a lack of activity; 0.1 corresponds to the presence of a trace of coloration; 0.5 corresponds to the presence of a very pale coloration; 1 corresponds to the presence of a clear coloration of weak intensity; 1.5 corresponds to the presence of a coloration which is intermediate between colorations 1 and 2; 2 corresponds to the presence of a true coloration of medium intensity; 2.5 corresponds to the presence of a coloration which is intermediate between colorations 2 and 3; 3 corresponds to the presence of an intense coloration; 3.5 corresponds to the presence of a coloration which is intermediate between colorations 3 and 4; 4 corresponds to the presence of a very intense coloration; conditions: strain 5
# Protocol: (§1) The maltose is solubilized in water at a concentration of, for example, 100 g/l, and then a sufficient volume to obtain the final concentrations above is added to the three molten media. The Staphylococcal strains derived from the bioMérieux internal collection were seeded onto each one of the chromogenic media on their own (closely spaced perpendicular streaks over the entire surface of the dish) using a suspension at 0.5 MacFarland diluted to 1/30000. The dishes were incubated at 37° C. for 48 hours. The colonies formed were examined visually after 18, 24 and 48 hours of incubation and the intensity of coloration of the colonies was marked. The coloration was noted and the intensity of these colorations was marked. The reading scale is the same as that used above for tables 2 and 4.
# S. aureus 7509008 = experiment: as above; type: cell-based, Staphylococcus aureus; set-up: key: 0 corresponds to a lack of activity; 0.1 corresponds to the presence of a trace of coloration; 0.5 corresponds to the presence of a very pale coloration; 1 corresponds to the presence of a clear coloration of weak intensity; 1.5 corresponds to the presence of a coloration which is intermediate between colorations 1 and 2; 2 corresponds to the presence of a true coloration of medium intensity; 2.5 corresponds to the presence of a coloration which is intermediate between colorations 2 and 3; 3 corresponds to the presence of an intense coloration; 3.5 corresponds to the presence of a coloration which is intermediate between colorations 3 and 4; 4 corresponds to the presence of a very intense coloration; conditions: strain 1
# Protocol: as §1
# S. aureus 8311065 = experiment: as above; type: cell-based, Staphylococcus aureus; set-up: key: 0 corresponds to a lack of activity; 0.1 corresponds to the presence of a trace of coloration; 0.5 corresponds to the presence of a very pale coloration; 1 corresponds to the presence of a clear coloration of weak intensity; 1.5 corresponds to the presence of a coloration which is intermediate between colorations 1 and 2; 2 corresponds to the presence of a true coloration of medium intensity; 2.5 corresponds to the presence of a coloration which is intermediate between colorations 2 and 3; 3 corresponds to the presence of an intense coloration; 3.5 corresponds to the presence of a coloration which is intermediate between colorations 3 and 4; 4 corresponds to the presence of a very intense coloration; conditions: strain 3
# Protocol: as §1
# S. aureus 8507276 = experiment: as above; type: cell-based, Staphylococcus aureus; set-up: key: 0 corresponds to a lack of activity; 0.1 corresponds to the presence of a trace of coloration; 0.5 corresponds to the presence of a very pale coloration; 1 corresponds to the presence of a clear coloration of weak intensity; 1.5 corresponds to the presence of a coloration which is intermediate between colorations 1 and 2; 2 corresponds to the presence of a true coloration of medium intensity; 2.5 corresponds to the presence of a coloration which is intermediate between colorations 2 and 3; 3 corresponds to the presence of an intense coloration; 3.5 corresponds to the presence of a coloration which is intermediate between colorations 3 and 4; 4 corresponds to the presence of a very intense coloration; conditions: strain 2
# Protocol: as §1
# S. aureus 8507285 = experiment: as above; type: cell-based, Staphylococcus aureus; set-up: key: 0 corresponds to a lack of activity; 0.1 corresponds to the presence of a trace of coloration; 0.5 corresponds to the presence of a very pale coloration; 1 corresponds to the presence of a clear coloration of weak intensity; 1.5 corresponds to the presence of a coloration which is intermediate between colorations 1 and 2; 2 corresponds to the presence of a true coloration of medium intensity; 2.5 corresponds to the presence of a coloration which is intermediate between colorations 2 and 3; 3 corresponds to the presence of an intense coloration; 3.5 corresponds to the presence of a coloration which is intermediate between colorations 3 and 4; 4 corresponds to the presence of a very intense coloration; conditions: strain 4
# Protocol: as §1
# Staphylococcus aureus = experiment: Experiment 7: effect of maltose, summary; type: cell-based; conditions: in particular critical strains (3, 4, 5 and 6)
# Protocol: as §1, with “marked.” for “marked. The coloration was noted and the intensity of these colorations was marked. The reading scale is the same as that used above for tables 2 and 4.”
smiles,measurement,setting,value
"OC[C@H]1O[C@H](O[C@H]2[C@H](O)[C@@H](O)C(O)O[C@@H]2CO)[C@H](O)[C@@H](O)[C@@H]1O (mixture of isomers) [Maltose, maltose]",Intensity of coloration of the colonies,"S. aureus 0201035; 18 h, Maltose 100 mg/l",0.3
same,Intensity of coloration of the colonies,"S. aureus 0201035; 18 h, Maltose 300 mg/l",0.5
same,Intensity of coloration of the colonies,"S. aureus 0201035; 18 h, Maltose 400 mg/l",0.5
same,Intensity of coloration of the colonies,"S. aureus 0201035; 24 h, Maltose 100 mg/l",0.5
same,Intensity of coloration of the colonies,"S. aureus 0201035; 24 h, Maltose 300 mg/l",1
same,Intensity of coloration of the colonies,"S. aureus 0201035; 24 h, Maltose 400 mg/l",1
same,Intensity of coloration of the colonies,"S. aureus 0201035; >40 h, Maltose 100 mg/l",0.8
same,Intensity of coloration of the colonies,"S. aureus 0201035; >40 h, Maltose 300 mg/l",1
same,Intensity of coloration of the colonies,"S. aureus 0201035; >40 h, Maltose 400 mg/l",1.3
same,Intensity of coloration of the colonies,"S. aureus 7509008; 18 h, Maltose 100 mg/l",1.3
same,Intensity of coloration of the colonies,"S. aureus 7509008; 18 h, Maltose 300 mg/l",1.3
same,Intensity of coloration of the colonies,"S. aureus 7509008; 18 h, Maltose 400 mg/l",1.7
same,Intensity of coloration of the colonies,"S. aureus 7509008; 24 h, Maltose 100 mg/l",1.7
same,Intensity of coloration of the colonies,"S. aureus 7509008; 24 h, Maltose 300 mg/l",1.7
same,Intensity of coloration of the colonies,"S. aureus 7509008; 24 h, Maltose 400 mg/l",3
same,Intensity of coloration of the colonies,"S. aureus 7509008; >40 h, Maltose 100 mg/l",2
same,Intensity of coloration of the colonies,"S. aureus 7509008; >40 h, Maltose 300 mg/l",2
same,Intensity of coloration of the colonies,"S. aureus 7509008; >40 h, Maltose 400 mg/l",2.7
same,Intensity of coloration of the colonies,"S. aureus 8311065; 18 h, Maltose 100 mg/l",1.3
same,Intensity of coloration of the colonies,"S. aureus 8311065; 18 h, Maltose 300 mg/l",1.3
same,Intensity of coloration of the colonies,"S. aureus 8311065; 18 h, Maltose 400 mg/l",1.3
same,Intensity of coloration of the colonies,"S. aureus 8311065; 24 h, Maltose 100 mg/l",1.7
same,Intensity of coloration of the colonies,"S. aureus 8311065; 24 h, Maltose 300 mg/l",1.7
same,Intensity of coloration of the colonies,"S. aureus 8311065; 24 h, Maltose 400 mg/l",2
same,Intensity of coloration of the colonies,"S. aureus 8311065; >40 h, Maltose 100 mg/l",2.7
same,Intensity of coloration of the colonies,"S. aureus 8311065; >40 h, Maltose 300 mg/l",2.7
same,Intensity of coloration of the colonies,"S. aureus 8311065; >40 h, Maltose 400 mg/l",2.7
same,Intensity of coloration of the colonies,"S. aureus 8507276; 18 h, Maltose 100 mg/l",2
same,Intensity of coloration of the colonies,"S. aureus 8507276; 18 h, Maltose 300 mg/l",2
same,Intensity of coloration of the colonies,"S. aureus 8507276; 18 h, Maltose 400 mg/l",2
same,Intensity of coloration of the colonies,"S. aureus 8507276; 24 h, Maltose 100 mg/l",2.7
same,Intensity of coloration of the colonies,"S. aureus 8507276; 24 h, Maltose 300 mg/l",2.7
same,Intensity of coloration of the colonies,"S. aureus 8507276; 24 h, Maltose 400 mg/l",2.7
same,Intensity of coloration of the colonies,"S. aureus 8507276; >40 h, Maltose 100 mg/l",3
same,Intensity of coloration of the colonies,"S. aureus 8507276; >40 h, Maltose 300 mg/l",3
same,Intensity of coloration of the colonies,"S. aureus 8507276; >40 h, Maltose 400 mg/l",3
same,Intensity of coloration of the colonies,"S. aureus 8507285; 18 h, Maltose 100 mg/l",0
same,Intensity of coloration of the colonies,"S. aureus 8507285; 18 h, Maltose 300 mg/l",0
same,Intensity of coloration of the colonies,"S. aureus 8507285; 18 h, Maltose 400 mg/l",0
same,Intensity of coloration of the colonies,"S. aureus 8507285; 24 h, Maltose 100 mg/l",0.3
same,Intensity of coloration of the colonies,"S. aureus 8507285; 24 h, Maltose 300 mg/l",0.3
same,Intensity of coloration of the colonies,"S. aureus 8507285; 24 h, Maltose 400 mg/l",0.3
same,Intensity of coloration of the colonies,"S. aureus 8507285; >40 h, Maltose 100 mg/l",0.8
same,Intensity of coloration of the colonies,"S. aureus 8507285; >40 h, Maltose 300 mg/l",1
same,Intensity of coloration of the colonies,"S. aureus 8507285; >40 h, Maltose 400 mg/l",1.3
same,effect on α-glucosidase expression,Staphylococcus aureus,activates the α-glucosidase expression
